From US12365696B2, “Small-molecule focal adhesion kinase (FAK) inhibitors” (DANA-FARBER CANCER INSTITUTE, INC., priority 2019, dated 2025)
Read-outs that look alike come from different tables or passages of the source.

Experiments:
Assay in all cases: KINOMEscan
Assay type in all cases: binding
MAP4K5 = MAP4K5 (Homo sapiens (Human), UniProt Q9Y4K4); details: MAP4K5, 10000 nM; read-out: Percent Control
PKN2 = PKN2 (Homo sapiens (Human), UniProt Q16513); details: PKN2, 10000 nM; read-out: Percent Control
Chain of PKN2 (Q16513 whole entry): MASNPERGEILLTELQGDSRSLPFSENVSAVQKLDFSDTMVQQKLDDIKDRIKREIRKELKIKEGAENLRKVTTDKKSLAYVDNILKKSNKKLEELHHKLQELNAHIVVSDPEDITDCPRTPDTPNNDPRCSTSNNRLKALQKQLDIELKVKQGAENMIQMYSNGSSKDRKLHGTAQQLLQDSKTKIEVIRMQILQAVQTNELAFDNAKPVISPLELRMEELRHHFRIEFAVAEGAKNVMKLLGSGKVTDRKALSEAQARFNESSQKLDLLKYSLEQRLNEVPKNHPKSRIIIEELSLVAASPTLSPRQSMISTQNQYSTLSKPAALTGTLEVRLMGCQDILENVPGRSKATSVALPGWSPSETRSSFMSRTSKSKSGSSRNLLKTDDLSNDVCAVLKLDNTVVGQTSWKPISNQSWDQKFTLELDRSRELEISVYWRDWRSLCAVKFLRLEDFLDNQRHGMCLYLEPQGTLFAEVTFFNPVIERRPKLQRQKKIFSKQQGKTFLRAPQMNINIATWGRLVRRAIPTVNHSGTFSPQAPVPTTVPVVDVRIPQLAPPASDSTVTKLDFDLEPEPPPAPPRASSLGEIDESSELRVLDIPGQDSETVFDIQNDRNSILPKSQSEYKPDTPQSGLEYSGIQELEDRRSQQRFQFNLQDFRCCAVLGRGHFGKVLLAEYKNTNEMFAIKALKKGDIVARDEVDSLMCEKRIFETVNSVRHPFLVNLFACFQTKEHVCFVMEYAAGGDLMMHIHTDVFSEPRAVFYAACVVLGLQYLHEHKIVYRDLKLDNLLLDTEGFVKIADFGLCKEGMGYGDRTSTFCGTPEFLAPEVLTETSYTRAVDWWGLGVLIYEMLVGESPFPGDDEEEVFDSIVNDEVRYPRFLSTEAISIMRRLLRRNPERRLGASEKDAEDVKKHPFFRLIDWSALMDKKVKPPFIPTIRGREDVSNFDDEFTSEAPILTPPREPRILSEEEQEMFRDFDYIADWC

RIPK5 = RIPK5 (Homo sapiens (Human), UniProt Q6XUX3); details: RIPK5, 10000 nM; read-out: Percent Control
NEK11 = NEK11 (Homo sapiens (Human), UniProt Q8NG66); details: NEK11, 10000 nM; read-out: Percent Control
DMPK = DMPK (Homo sapiens (Human), UniProt Q09013); details: 10000 nM, read-out: Percent Control
[1] = biological target: (Homo sapiens (Human), UniProt P57078); details: read-out: Percent Control
PLK4 = PLK4 (Homo sapiens (Human), UniProt O00444); details: PLK4, 10000 nM; read-out: Percent Control
QSK = QSK (Homo sapiens (Human), UniProt Q9Y2K2); details: 10000 nM, read-out: Percent Control
ERBB4 = ERBB4 (Homo sapiens (Human), UniProt Q15303); details: ERBB4, 10000 nM; read-out: Percent Control
SGK = SGK (Homo sapiens (Human), UniProt O00141); details: 10000 nM, read-out: Percent Control
PCTK2 = PCTK2 (Homo sapiens (Human), UniProt Q00537); details: PCTK2, 10000 nM; read-out: Percent Control
Chain of PCTK2 (Q00537 whole entry): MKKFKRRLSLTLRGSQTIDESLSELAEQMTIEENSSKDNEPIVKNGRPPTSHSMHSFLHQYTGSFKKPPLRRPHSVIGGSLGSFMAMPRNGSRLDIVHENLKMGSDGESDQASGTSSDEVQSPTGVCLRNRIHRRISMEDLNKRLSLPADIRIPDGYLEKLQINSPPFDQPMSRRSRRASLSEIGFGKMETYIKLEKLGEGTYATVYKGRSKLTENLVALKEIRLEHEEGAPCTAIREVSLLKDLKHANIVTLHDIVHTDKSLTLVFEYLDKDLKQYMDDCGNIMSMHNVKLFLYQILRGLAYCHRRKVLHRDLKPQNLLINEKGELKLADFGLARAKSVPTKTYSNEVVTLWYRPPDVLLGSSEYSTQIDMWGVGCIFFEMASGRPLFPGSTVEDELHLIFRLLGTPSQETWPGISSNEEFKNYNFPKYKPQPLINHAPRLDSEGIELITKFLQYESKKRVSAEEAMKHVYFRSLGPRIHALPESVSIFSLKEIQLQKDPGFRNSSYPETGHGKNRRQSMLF

PFTAIRE2 = PFTAIRE2 (Homo sapiens (Human), UniProt Q96Q40); details: PFTAIRE2, 10000 nM; read-out: Percent Control
PHKG1 = PHKG1 (Homo sapiens (Human), UniProt Q16816); details: PHKG1, 10000 nM; read-out: Percent Control
[2] = biological target: ABL1(H396P)-nonphosphorylated (Homo sapiens (Human), UniProt P00519, H396P); details: 10000 nM, read-out: Percent Control
CAMK2D = CAMK2D (Homo sapiens (Human), UniProt Q13557); details: 10000 nM, read-out: Percent Control
[3] = biological target: JAK2(JH1domain-catalytic) (Homo sapiens (Human), UniProt O60674); details: 10000 nM, read-out: Percent Control
ALK(L1196M) = ALK(L1196M) (Homo sapiens (Human), UniProt Q9UM73, L1196M); details: 10000 nM, read-out: Percent Control
Chain of ALK(L1196M) (Q9UM73 19-1620 L1196M): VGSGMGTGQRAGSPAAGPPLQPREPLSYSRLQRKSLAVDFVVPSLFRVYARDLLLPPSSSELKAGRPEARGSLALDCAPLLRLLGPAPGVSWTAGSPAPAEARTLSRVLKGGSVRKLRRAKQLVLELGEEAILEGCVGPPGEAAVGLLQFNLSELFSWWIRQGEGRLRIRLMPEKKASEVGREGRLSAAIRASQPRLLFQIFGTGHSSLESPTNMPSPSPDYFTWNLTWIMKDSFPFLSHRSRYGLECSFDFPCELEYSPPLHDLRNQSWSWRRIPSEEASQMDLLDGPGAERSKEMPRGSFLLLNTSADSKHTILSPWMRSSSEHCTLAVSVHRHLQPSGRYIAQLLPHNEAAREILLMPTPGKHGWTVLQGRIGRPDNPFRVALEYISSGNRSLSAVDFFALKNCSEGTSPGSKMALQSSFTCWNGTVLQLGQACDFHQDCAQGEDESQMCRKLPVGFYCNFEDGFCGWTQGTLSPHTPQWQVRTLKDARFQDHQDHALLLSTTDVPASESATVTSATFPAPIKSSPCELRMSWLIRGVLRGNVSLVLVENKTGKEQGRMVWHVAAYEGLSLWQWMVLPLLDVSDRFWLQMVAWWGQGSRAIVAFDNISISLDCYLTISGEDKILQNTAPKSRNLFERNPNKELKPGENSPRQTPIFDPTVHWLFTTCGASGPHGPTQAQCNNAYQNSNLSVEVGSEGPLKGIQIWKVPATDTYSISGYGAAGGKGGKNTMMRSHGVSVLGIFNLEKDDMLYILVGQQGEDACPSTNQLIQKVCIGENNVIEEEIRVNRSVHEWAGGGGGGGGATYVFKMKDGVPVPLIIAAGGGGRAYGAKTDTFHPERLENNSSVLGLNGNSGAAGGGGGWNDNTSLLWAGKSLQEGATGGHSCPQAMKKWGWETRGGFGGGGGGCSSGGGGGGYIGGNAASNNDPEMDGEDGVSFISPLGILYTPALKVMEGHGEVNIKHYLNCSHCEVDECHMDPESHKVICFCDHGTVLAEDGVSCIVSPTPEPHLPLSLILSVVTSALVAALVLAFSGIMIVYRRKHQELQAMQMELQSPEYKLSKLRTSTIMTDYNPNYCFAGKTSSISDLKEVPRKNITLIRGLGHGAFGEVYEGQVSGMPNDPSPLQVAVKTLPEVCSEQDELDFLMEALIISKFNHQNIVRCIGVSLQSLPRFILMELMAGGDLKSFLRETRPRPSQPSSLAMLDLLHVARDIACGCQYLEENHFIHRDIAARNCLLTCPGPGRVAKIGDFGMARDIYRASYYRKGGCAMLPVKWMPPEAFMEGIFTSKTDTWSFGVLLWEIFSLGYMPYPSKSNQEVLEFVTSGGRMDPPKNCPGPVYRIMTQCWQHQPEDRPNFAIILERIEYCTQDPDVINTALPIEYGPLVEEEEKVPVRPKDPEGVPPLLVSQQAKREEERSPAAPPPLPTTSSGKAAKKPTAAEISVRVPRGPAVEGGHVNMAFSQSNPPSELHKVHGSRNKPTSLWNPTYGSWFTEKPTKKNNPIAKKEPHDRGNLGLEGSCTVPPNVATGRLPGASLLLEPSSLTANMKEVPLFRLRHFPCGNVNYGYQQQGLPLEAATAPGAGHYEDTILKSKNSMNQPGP

ADCK4 = ADCK4 (Homo sapiens (Human), UniProt Q96D53); details: ADCK4, 10000 nM; read-out: Percent Control
TLK2 = TLK2 (Homo sapiens (Human), UniProt Q86UE8); details: TLK2, 10000 nM; read-out: Percent Control
[4] = biological target: ABL1(Q252H)-phosphorylated (Homo sapiens (Human), UniProt P00519, Q252H); details: 10000 nM, read-out: Percent Control
EGFR(L861Q) = EGFR(L861Q) (Homo sapiens (Human), UniProt P00533, L861Q); details: 10000 nM, read-out: Percent Control
SYK = SYK (Homo sapiens (Human), UniProt P43405); details: 10000 nM, read-out: Percent Control
CIT = CIT (Homo sapiens (Human), UniProt O14578); details: 10000 nM, read-out: Percent Control
EGFR(G719C) = EGFR(G719C) (Homo sapiens (Human), UniProt P00533, G719C); details: 10000 nM, read-out: Percent Control
EGFR(E746-A750del) = EGFR(E746-A750del) (Homo sapiens (Human), UniProt P00533, DEL746-750); details: 10000 nM, read-out: Percent Control
ERN1 = ERN1 (Homo sapiens (Human), UniProt O75460); details: ERN1, 10000 nM; read-out: Percent Control
NDR1 = NDR1 (Homo sapiens (Human), UniProt Q15208); details: NDR1, 10000 nM; read-out: Percent Control
Chain of NDR1 (Q15208 whole entry): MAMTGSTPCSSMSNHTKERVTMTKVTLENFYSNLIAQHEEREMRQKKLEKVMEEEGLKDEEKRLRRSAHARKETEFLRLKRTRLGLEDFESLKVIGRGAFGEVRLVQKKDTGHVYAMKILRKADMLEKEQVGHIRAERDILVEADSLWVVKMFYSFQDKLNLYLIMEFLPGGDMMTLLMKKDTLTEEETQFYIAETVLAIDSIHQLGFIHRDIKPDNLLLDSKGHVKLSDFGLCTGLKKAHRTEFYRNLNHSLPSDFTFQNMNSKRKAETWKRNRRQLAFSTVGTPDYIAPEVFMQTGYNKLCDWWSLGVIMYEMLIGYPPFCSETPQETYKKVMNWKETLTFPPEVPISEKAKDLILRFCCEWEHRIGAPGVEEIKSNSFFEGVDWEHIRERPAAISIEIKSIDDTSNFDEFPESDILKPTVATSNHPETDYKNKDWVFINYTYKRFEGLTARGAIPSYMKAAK

KIT(V5S9D, V654A) = KIT(V5S9D, V654A) (Homo sapiens (Human), UniProt P10721, V559D/V654A); details: 10000 nM, read-out: Percent Control
Chain of KIT(V5S9D, V654A) (P10721 544-976 V559D/V654A): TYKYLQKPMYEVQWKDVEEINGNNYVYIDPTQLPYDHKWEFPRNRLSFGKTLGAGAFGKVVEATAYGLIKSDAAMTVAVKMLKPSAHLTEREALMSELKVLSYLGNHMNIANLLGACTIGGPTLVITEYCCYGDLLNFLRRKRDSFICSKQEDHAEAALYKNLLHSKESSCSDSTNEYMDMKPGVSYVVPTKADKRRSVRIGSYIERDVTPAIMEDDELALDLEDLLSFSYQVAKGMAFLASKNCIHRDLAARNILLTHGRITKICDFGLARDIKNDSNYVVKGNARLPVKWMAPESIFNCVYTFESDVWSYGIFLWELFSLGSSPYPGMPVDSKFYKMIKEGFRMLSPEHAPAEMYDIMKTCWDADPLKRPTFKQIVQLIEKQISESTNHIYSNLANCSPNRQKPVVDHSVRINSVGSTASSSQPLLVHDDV

MAP3K3 = MAP3K3 (Homo sapiens (Human), UniProt Q99759); details: MAP3K3, 10000 nM; read-out: Percent Control
CDKL2 = CDKL2 (Homo sapiens (Human), UniProt Q92772); details: CDKL2, 10000 nM; read-out: Percent Control
Chain of CDKL2 (Q92772 whole entry): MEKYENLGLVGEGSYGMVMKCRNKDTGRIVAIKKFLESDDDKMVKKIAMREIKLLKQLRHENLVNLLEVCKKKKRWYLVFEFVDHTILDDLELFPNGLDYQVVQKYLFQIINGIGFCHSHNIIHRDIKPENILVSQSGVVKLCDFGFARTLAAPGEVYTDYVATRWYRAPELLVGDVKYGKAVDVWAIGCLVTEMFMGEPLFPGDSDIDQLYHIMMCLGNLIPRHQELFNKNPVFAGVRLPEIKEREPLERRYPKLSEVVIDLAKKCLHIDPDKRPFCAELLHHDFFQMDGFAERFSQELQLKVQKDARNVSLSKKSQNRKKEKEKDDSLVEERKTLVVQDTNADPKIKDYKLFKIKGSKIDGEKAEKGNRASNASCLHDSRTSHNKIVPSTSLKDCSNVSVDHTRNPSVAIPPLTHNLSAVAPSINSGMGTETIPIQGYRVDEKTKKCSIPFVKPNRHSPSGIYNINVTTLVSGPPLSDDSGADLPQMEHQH

MARK2 = MARK2 (Homo sapiens (Human), UniProt Q7KZI7); details: MARK2, 10000 nM; read-out: Percent Control
PRKR = PRKR (Homo sapiens (Human), UniProt P19525); details: 10000 nM, read-out: Percent Control
GRK7 = GRK7 (Homo sapiens (Human), UniProt Q8WTQ7); details: GRK7, 10000 nM; read-out: Percent Control
Chain of GRK7 (Q8WTQ7 whole entry): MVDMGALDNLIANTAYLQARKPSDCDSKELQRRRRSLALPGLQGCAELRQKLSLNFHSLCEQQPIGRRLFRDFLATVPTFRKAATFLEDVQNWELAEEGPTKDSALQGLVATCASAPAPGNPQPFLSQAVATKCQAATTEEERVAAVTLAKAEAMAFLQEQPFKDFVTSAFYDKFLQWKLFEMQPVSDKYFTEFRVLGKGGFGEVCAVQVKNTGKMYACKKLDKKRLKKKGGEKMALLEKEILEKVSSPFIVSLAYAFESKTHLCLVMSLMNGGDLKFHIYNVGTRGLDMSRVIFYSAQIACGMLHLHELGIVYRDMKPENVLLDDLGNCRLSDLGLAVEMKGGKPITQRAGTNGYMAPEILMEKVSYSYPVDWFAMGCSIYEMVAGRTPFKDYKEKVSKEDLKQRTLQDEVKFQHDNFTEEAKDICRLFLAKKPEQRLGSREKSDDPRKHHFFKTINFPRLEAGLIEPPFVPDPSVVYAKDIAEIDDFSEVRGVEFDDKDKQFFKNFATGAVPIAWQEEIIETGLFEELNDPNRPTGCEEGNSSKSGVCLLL

| SMILES | remaining binding at 10 µM (MAP4K5) [%] | remaining binding at 10 µM (PKN2) [%] | remaining binding at 10 µM (RIPK5) [%] | remaining binding at 10 µM (NEK11) [%] | remaining binding at 10 µM (DMPK) [%] | remaining binding at 10 µM (PLK4) [%] | remaining binding at 10 µM (QSK) [%] | remaining binding at 10 µM (ERBB4) [%] | remaining binding at 10 µM (SGK) [%] | remaining binding at 10 µM (PCTK2) [%] | remaining binding at 10 µM (PFTAIRE2) [%] | remaining binding at 10 µM (PHKG1) [%] | remaining binding at 10 µM [2] [%] | remaining binding at 10 µM (CAMK2D) [%] | remaining binding at 10 µM [3] [%] | remaining binding at 10 µM (ALK(L1196M)) [%] | remaining binding at 10 µM (ADCK4) [%] | remaining binding at 10 µM (TLK2) [%] | remaining binding at 10 µM [4] [%] | remaining binding at 10 µM (EGFR(L861Q)) [%] | other results |
| --- | --- | --- | --- | --- | --- | --- | --- | --- | --- | --- | --- | --- | --- | --- | --- | --- | --- | --- | --- | --- | --- |
| COc1cc(N2CCC(N3CCN(C)CC3)CC2)ccc1Nc1ncc2c(n1)N(C)c1sc(C)nc1C(=O)N2 [Compound 3, 6-((2-methoxy-4-(4-(4-methylpiperazin-1-yl)piperidin-1-yl)phenyl)amino)-2,4-dimethyl-4,9-dihydro-10H-pyrimido[5,4-b]thiazolo[5,4-e][1,4]diazepin-10-one] | 82 | 100 | 100 | 100 | 99 | 81 | 100 | 57 | 100 | 76 | 86 | 78 | 4.3 | 82 | 100 | 80 | 83 | 100 | 9.7 | 38 | remaining binding at 10 µM ([1]; PIPK4, 10000 nM): 100%; remaining binding at 10 µM (SYK): 77%; remaining binding at 10 µM (CIT): 73%; remaining binding at 10 µM (EGFR(G719C)): 34%; remaining binding at 10 µM (EGFR(E746-A750del)): 67%; remaining binding at 10 µM (ERN1): 93%; remaining binding at 10 µM (NDR1): 97%; remaining binding at 10 µM (KIT(V5S9D, V654A); KIT(V5S9D, V654A)): 108%; remaining binding at 10 µM (MAP3K3): 100%; remaining binding at 10 µM (CDKL2): 75%; remaining binding at 10 µM (MARK2): 100%; remaining binding at 10 µM (PRKR): 100%; remaining binding at 10 µM (GRK7): 97% |
| COc1cc(N2CCC(N3CCN(C)CC3)CC2)ccc1Nc1ncc2c(n1)N(C)c1sc(C)nc1C(=O)N2C [Compound 5, 6-((2-methoxy-4-(4-(4-methylpiperazin-1-yl)piperidin-1-yl)phenyl)amino)-2,4,9-trimethyl-4,9-dihydro-10H-pyrimido[5,4-b]thiazolo[5,4-e][1,4]diazepin-10-one] | 91 | 100 | 60 | 100 | 100 | 19 | 94 | 100 | 100 | 100 | 100 | 84 | 100 | 92 | 99 | 79 | 73 | 100 | 100 | 100 | remaining binding at 10 µM ([1]; RIPK4, 10000 nM): 100%; remaining binding at 10 µM (SYK): 89%; remaining binding at 10 µM (CIT): 98%; remaining binding at 10 µM (EGFR(G719C)): 100%; remaining binding at 10 µM (EGFR(E746-A750del)): 79%; remaining binding at 10 µM (ERN1): 88%; remaining binding at 10 µM (NDR1): 98%; remaining binding at 10 µM (KIT(V5S9D, V654A); KIT(V559D, V654A)): 100%; remaining binding at 10 µM (MAP3K3): 100%; remaining binding at 10 µM (CDKL2): 95%; remaining binding at 10 µM (MARK2): 100%; remaining binding at 10 µM (PRKR): 65%; remaining binding at 10 µM (GRK7): 100% |
